BindingDB's records for doi:10.1016/0922-4106(94)90075-2 (University of Pisa, 1994)

Assays:
[1] = target: Muscarinic acetylcholine receptor M3 (Homo sapiens, UniProt P20309)
[2] = target: T1, Muscarinic acetylcholine receptor M4 (Homo sapiens, UniProt P08173)
T1 sequence (P08173 whole entry): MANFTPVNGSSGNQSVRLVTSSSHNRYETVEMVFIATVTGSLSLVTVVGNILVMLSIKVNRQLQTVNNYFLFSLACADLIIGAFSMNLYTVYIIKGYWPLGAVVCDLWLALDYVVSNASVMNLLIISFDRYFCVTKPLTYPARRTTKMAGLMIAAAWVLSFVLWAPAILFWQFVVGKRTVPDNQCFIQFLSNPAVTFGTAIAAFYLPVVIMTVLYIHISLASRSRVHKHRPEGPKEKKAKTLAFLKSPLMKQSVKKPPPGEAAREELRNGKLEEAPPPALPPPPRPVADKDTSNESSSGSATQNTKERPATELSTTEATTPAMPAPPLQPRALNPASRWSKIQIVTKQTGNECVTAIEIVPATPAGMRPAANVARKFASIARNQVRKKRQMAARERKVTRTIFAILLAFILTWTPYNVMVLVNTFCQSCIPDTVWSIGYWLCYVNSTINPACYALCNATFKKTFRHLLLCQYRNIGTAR

[3] = target: T2, Muscarinic acetylcholine receptor M5 (Homo sapiens, UniProt P08912)
T2 sequence (P08912 whole entry): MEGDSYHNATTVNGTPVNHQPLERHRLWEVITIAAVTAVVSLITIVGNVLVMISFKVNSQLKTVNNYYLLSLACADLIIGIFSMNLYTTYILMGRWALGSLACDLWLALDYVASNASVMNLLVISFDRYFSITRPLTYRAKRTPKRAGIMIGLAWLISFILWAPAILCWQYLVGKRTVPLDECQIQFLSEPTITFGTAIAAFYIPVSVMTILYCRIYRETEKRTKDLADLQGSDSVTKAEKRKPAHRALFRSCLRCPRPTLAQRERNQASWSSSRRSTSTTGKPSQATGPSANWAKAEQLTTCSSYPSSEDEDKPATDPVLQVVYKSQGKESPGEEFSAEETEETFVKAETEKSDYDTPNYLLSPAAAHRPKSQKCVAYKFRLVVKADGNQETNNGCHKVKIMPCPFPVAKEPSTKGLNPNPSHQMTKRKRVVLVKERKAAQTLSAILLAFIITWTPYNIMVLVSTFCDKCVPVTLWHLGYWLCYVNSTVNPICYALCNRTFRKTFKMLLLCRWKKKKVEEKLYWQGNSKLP

[4] = target: T3, Muscarinic acetylcholine receptor M1 (Homo sapiens, UniProt P11229)
T3 sequence (P11229 whole entry): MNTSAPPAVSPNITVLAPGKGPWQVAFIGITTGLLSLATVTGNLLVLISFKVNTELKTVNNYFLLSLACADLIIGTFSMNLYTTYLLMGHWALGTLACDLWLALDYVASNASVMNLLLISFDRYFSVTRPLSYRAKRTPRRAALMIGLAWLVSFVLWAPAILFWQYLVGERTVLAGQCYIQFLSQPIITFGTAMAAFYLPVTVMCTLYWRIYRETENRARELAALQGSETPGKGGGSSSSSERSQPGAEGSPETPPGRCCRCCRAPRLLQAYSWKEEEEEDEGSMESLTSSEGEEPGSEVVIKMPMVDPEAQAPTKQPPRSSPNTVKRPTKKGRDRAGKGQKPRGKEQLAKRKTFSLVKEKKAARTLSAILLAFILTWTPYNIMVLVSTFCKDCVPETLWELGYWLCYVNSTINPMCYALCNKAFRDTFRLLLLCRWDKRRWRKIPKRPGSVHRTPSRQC

Chain of Muscarinic acetylcholine receptor M3 (P20309 whole entry): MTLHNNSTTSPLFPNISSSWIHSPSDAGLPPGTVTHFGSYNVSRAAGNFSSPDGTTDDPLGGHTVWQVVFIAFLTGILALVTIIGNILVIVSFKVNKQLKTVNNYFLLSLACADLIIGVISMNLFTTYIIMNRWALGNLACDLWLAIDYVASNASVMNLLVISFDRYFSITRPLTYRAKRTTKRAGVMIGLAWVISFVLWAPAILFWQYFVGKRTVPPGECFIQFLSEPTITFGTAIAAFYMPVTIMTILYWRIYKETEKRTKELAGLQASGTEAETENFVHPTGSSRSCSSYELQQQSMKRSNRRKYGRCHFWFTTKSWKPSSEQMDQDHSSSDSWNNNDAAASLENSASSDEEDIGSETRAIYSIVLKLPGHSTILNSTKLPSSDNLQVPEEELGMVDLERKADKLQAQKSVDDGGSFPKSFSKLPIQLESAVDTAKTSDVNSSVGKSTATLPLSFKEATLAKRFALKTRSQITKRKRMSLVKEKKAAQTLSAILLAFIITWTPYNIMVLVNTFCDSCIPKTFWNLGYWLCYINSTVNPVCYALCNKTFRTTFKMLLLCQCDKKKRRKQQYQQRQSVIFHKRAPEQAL

| Structure (SMILES) | Ki [1] | Ki [2] | Ki [3] | Ki [4] |
| --- | --- | --- | --- | --- |
| COc1ccccc1CNCCCCCCNCCCCCCCCNCCCCCCNCc1ccccc1OC [METHOCTRAMINE] | 277 nM | 38 nM | 313 nM | – |
| CN(CCCCCCCCN(C)CCCCCCN(CC(=O)N1c2ccccc2C(=O)Nc2cccnc21)CC(=O)N1c2ccccc2C(=O)Nc2cccnc21)CCCCCCNCC(=O)N1c2ccccc2C(=O)Nc2cccnc21 [NSC_132947] | 38.2 nM | 6.41 nM | 33.9 nM | 1.58 nM |
